Reference: patent US12012390B2, “Flavone compounds for the treatment and prophylaxis of hepatitis B virus disease” (priority 2018, dated 2024)

system: HBeAg level (surrogate marker for cccDNA) in HepDES19 cells; assay: Engineered HepDES19 primary screen assay (HBeAg as surrogate marker for cccDNA); assay type: cell-based, HBV; conditions: Hepatitis B virus, HepDES19, 120 h, read-out: IC50 (HBeAg) in HepDES19 primary screen assay, HepDES19 cells, 5 days incubation with compound, HBeAg by ELISA
From the text: The assay was employed to screen for novel cccDNA inhibitors. HepDES19 is a cccDNA-producing cell line. In this cell line, HBeAg in the cell culture supernatant as surrogate marker, as HBeAg production depends on cccDNA level and activity. HepDES19 is an engineered cell line which contains a 1.1 unit length HBV genome, and pgRNA transcription from the transgene is controlled by Tetracycline (Tet). In the absence of Tet, pgRNA transcription will be induced, but HBV e antigen (HBeAg) could not be produced from this pgRNA due to very short leader sequence before the HBeAg start codon and the start codon is disrupted. Only after cccDNA is formed, the missing leader sequence and start codon mutation would be restored from the 3′-terminal redundancy of pgRNA, and then HBeAg could be synthesized. Therefore, HBeAg could be used as a surrogate marker for cccDNA (Zhou, T. et al., Antiviral Res. (2006), 72(2), 116-124; Guo, H. et al., J. Virol. (2007), 81(22), 12472-12484).
HepDES19 cells were seeded at 2×10^6 cells per T150 flask and cultured with the culture medium (Dulbecco's Modified Eagle Medium: Nutrient Mixture F-12 [DMEM-F12, Gibco Cat. 11320-82], 10% Fetal Bovine Serum [FBS, Clontech Cat. 631101], 0.1 mM Non-Essential Amino Acids Solution [NEAA, Gibco Cat. 11140-050], 50 μg/mL Penicillin-Streptomycin [PS, Invitrogen Cat. 15140-163], 500 μg/mL Geneticin [G418, Invitrogen Cat. 10131-027]) containing 3 μg/mL Tet (Sigma, Cat. 87128) for 5 days. Cells were then seeded at 4×10^6 cells per T150 in the same culture medium as described above in the absence of Tet for 8 days. Cells were then harvested and frozen at density of 2×10^6 cells per mL. For compound testing, the frozen cells were thawed and seeded into 96-well plates at a density of 6×10^4 cells per well. At 24 hrs after seeding, half log serial dilutions of compounds made with Dimethyl sulfoxide (DMSO, Sigma, Cat. D2650) were further diluted with the same culture medium as described above before they were added to the cells to reach desired final compound concentrations and 1% DMSO concentration. Plates were then incubated at 37° C. for another 5 days before measurement of HBeAg level and cell viability. Intracellular HBeAg level were measured with enzyme-linked immunosorbent assay (ELISA) kit (Shanghai Kehua Diagnostic Medical Products Co., Ltd). Cell viability was assessed using Cell Counting Kit-8 (Donjindo, Cat. CK04-20). IC50 values were derived from the dose-response curve using 4 parameter logistic curve fit method.
The compounds of the present invention were tested for their capacity to inhibit extracellular HBeAg level as described herein.

In order of falling IC50:
1. COc1c(-c2ccc(OCCO[C@H]3C[C@@H](C(=O)O)C3)cc2)oc2c(Cl)cccc2c1=O [Example 56, Cis-3-[2-[4-(8-chloro-3-methoxy-4-oxo-chromen-2-yl)phenoxy]ethoxy]cyclobutanecarboxylic acid]  29.6 µM
2. O=C(O)COCCOc1ccc(-c2oc3c(Cl)cccc3c(=O)c2O)cc1 [Example 59, 2-[2-[4-(8-chloro-3-hydroxy-4-oxo-chromen-2-yl)phenoxy]ethoxy]acetic acid]  20.2 µM
3. O=C(O)C1CC(OCCOc2ccc(-c3cc(=O)c4ccc(C5CC5)c(Cl)c4o3)cc2)C1 (stereo not drawn) [Example 70, 3-[2-[4-(8-chloro-7-cyclopropyl-4-oxo-chromen-2-yl)phenoxy]ethoxy]cyclobutanecarboxylic acid]  17.2 µM
4. O=c1cc(-c2ccc(OCCO[C@H]3C[C@@H](C(=O)O)C3)cc2)oc2c(C3CC3)cccc12 [Example 34, Cis-3-[2-[4-(8-cyclopropyl-4-oxo-chromen-2-yl)phenoxy]ethoxy]cyclobutanecarboxylic acid]  16 µM
5. O=c1cc(-c2ccc(OCCO[C@H]3CC[C@@H](C(=O)O)CC3)cc2)oc2c(Cl)cccc12 (single isomer, unassigned) [Example 7-A, 4-[2-[4-(8-chloro-4-oxo-chromen-2-yl)phenoxy]ethoxy]cyclohexanecarboxylic acid]  15.4 µM
6. Cc1cccc2c(=O)cc(-c3ccc(OCCO[C@H]4C[C@@H](C(=O)O)C4)cc3)oc12 [Example 35, Cis-3-[2-[4-(8-methyl-4-oxo-chromen-2-yl)phenoxy]ethoxy]cyclobutanecarboxylic acid]  13.9 µM
7. N#Cc1cc(Cl)c2oc(-c3ccc(OCCOC4CC(C(=O)O)C4)cc3)cc(=O)c2c1 (stereo not drawn) [Example 22, 3-[2-[4-(8-chloro-6-cyano-4-oxo-chromen-2-yl)phenoxy]ethoxy]cyclobutanecarboxylic acid]  13 µM
8. COC(=O)[C@H]1C[C@@H](OCCOc2ccc(-c3cc(=O)c4cccc(Cl)c4o3)nn2)C1 [Example 41, Cis-methyl 3-[2-[6-(8-chloro-4-oxo-chromen-2-yl)pyridazin-3-yl]oxyethoxy]cyclobutanecarboxylate]  12.8 µM
9. O=C(O)C1CC(OCCOc2ccc(-c3cc(=O)c4cc(N5CCCC5=O)cc(Cl)c4o3)cc2)C1 (stereo not drawn) [Example 68, 3-[2-[4-[8-chloro-4-oxo-6-(2-oxopyrrolidin-1-yl)chromen-2-yl]phenoxy]ethoxy]cyclobutanecarboxylic acid]  10.1 µM
10. CCOC(=O)COCCOc1ccc(-c2cc(=O)c3ccc(Br)c(Cl)c3o2)cc1 [Example 71, ethyl 2-[2-[4-(7-bromo-8-chloro-4-oxo-chromen-2-yl)phenoxy]ethoxy]acetate]  9.3 µM
11. O=C(O)COCCOc1ccc(-c2cc(=O)c3c(F)ccc(Cl)c3o2)cc1 [Example 37, 2-[2-[4-(8-chloro-5-fluoro-4-oxo-chromen-2-yl)phenoxy]ethoxy]acetic acid]  8.97 µM
12. CC(C)Oc1ccc(Cl)c2oc(-c3ccc(OCCO[C@H]4C[C@@H](C(=O)O)C4)cc3)cc(=O)c12 [Example 27, Cis-3-[2-[4-(8-chloro-5-isopropoxy-4-oxo-chromen-2-yl)phenoxy]ethoxy]cyclobutanecarboxylic acid]  7.68 µM
13. CC(C)c1cc(-c2cc(=O)c3cccc(Cl)c3o2)ccc1OCCOC1CC(C(=O)O)C1 (stereo not drawn) [Example 48, 3-[2-[4-(8-chloro-4-oxo-chromen-2-yl)-2-isopropyl-phenoxy]ethoxy]cyclobutanecarboxylic acid]  7.68 µM
14. O=C(O)C1CC(OCCOc2ccc(-c3oc4c(Cl)cccc4c(=O)c3OCc3ccccc3)cc2)C1 (stereo not drawn) [Example 65, 3-[2-[4-(3-benzyloxy-8-chloro-4-oxo-chromen-2-yl)phenoxy]ethoxy]cyclobutanecarboxylic acid]  6.5 µM
15. O=C(O)C1CC(OCCOc2ccc(-c3oc4c(Cl)cccc4c(=O)c3Br)cc2)C1 (stereo not drawn) [Example 64, 3-[2-[4-(3-bromo-8-chloro-4-oxo-chromen-2-yl)phenoxy]ethoxy]cyclobutanecarboxylic acid]  5.5 µM
16. O=C(O)C1CC(OCCOc2ccc(-c3cc(=O)c4cccc(Cl)c4o3)c(N3CCOCC3)c2)C1 (stereo not drawn) [Example 60, 3-[2-[4-(8-chloro-4-oxo-chromen-2-yl)-3-morpholino-phenoxy]ethoxy]cyclobutanecarboxylic acid]  4.84 µM
17. O=C(O)COCCOc1ccc(-c2cc(=O)c3cccc(Cl)c3o2)cc1 [Example 9, 2-[2-[4-(8-chloro-4-oxo-chromen-2-yl)phenoxy]ethoxy]acetic acid]  2.46 µM
18. Cc1ccc(Cl)c2oc(-c3ccc(OCCO[C@H]4C[C@@H](C(=O)O)C4)cc3)cc(=O)c12 [Example 31, Cis-3-[2-[4-(8-chloro-5-methyl-4-oxo-chromen-2-yl)phenoxy]ethoxy]cyclobutanecarboxylic acid]  0.78 µM
19. O=C(O)C1CC(OCCOc2ccc(-c3cc(=O)c4cc(F)cc(Cl)c4o3)cc2)C1 (stereo not drawn) [Example 20, 3-[2-[4-(8-chloro-6-fluoro-4-oxo-chromen-2-yl)phenoxy]ethoxy]cyclobutanecarboxylic acid]  0.7 µM
20. NC(=O)COCCOc1ccc(-c2cc(=O)c3cccc(Cl)c3o2)cc1 [Example 61, 2-[2-[4-(8-chloro-4-oxo-chromen-2-yl)phenoxy]ethoxy]acetamide]  0.144 µM

same assay, conditions: read-out: IC50 (HBeAg) in HepDES19 primary screen assay; HepDES19 cells, 5 days incubation with compound, HBeAg by ELISA

In order of falling IC50:
1. O=C(O)C1CC(OCCOc2ccc(-c3cc(=O)c4ccc(C5CC5)c(Cl)c4o3)cc2)C1 (single isomer, unassigned) [Example 70-A, 3-[2-[4-(8-chloro-7-cyclopropyl-4-oxo-chromen-2-yl)phenoxy]ethoxy]cyclobutanecarboxylic acid]  19.8 µM
2. O=c1cc(-c2ccc(OCCO[C@H]3CC[C@@H](C(=O)O)CC3)cc2)oc2c(Cl)cccc12 (single isomer, unassigned) [Example 7-B, 4-[2-[4-(8-chloro-4-oxo-chromen-2-yl)phenoxy]ethoxy]cyclohexanecarboxylic acid]  19.7 µM
3. O=C(O)[C@H]1C[C@H]1OCCOc1ccc(-c2cc(=O)c3cccc(Cl)c3o2)cc1 (single isomer, unassigned) [Example 5-A, 2-[2-[4-(8-chloro-4-oxo-chromen-2-yl)phenoxy]ethoxy]cyclopropanecarboxylic acid]  1.36 µM
4. COC(=O)C1CC(OCCOc2ccc(-c3oc4c(Cl)cc(F)cc4c(=O)c3OC(F)(F)F)cc2)C1 (single isomer, unassigned) [Example 62-B, methyl 3-[2-[4-[8-chloro-6-fluoro-4-oxo-3-(trifluoromethoxy)chromen-2-yl]phenoxy]ethoxy]cyclobutanecarboxylate]  1.32 µM
